Experimental data reported in paper PMC12434670 (Journal of Medicinal Chemistry, 2025).
Read-outs that look alike come from different tables or passages of the source.

Experiments:
[1] = test system: A/H5N1 (FL22, A/bald eagle/FL/W22-114/2022) pseudovirus; test: organism not typed; format: cell-based, influenza A virus; settings: read-out: EC50 for A/H5N1 (FL22) pseudovirus entry
[2] = in vitro; settings: dog
[3] = test system: MDCK cells; settings: dog
[4] = molecular target: H1 HA (Influenza A virus, UniProt C3W5S1); test: cell-based
[5] = test system: A/H1N1 virus; test: microbe, parasite or virus in culture; format: cell-based, influenza A virus; settings: Influenza A virus, H1N1, MDCK, read-out: Antiviral EC50 against A/H1N1 virus
[6] = test system: A/H1N1 (Virg09) pseudovirus; test: organism not typed; format: cell-based, influenza A virus; settings: for EC50: MDCK, 72 h, read-out: EC50 for A/H1N1 (Virg09) pseudovirus entry
[7] = test system: H5 HA (strain A/duck/Hunan/795/2002); format: cell-based, influenza A virus
[8] = test system: H1 HA protein (strain A/California/06/09); format: biochemical, influenza A virus
[9] = test system: A/H1N1 virus A/Virginia/ATCC3/2009 (Virg09); test: microbe, parasite or virus in culture; format: cell-based, influenza A virus
[10] = test system: A/H1N1 virus A/PR/8/34 (PR8); test: microbe, parasite or virus in culture; format: cell-based; settings: Influenza A virus, MDCK
[11] = test system: A/H1N1 virus Virg09 in Calu-3 cells; test: microbe, parasite or virus in culture; format: cell-based; settings: Influenza A virus, H1N1, Calu-3, 72 h, read-out: EC50 in Calu-3 cells infected with Virg09
[12] = test system: A/H5N1 virus; settings: read-out: EC50 against A/H5N1 virus; cited from earlier work
[13] = test system: A/H5N1 pseudovirus; settings: read-out: EC50 against A/H5N1 pseudovirus; cited from earlier work
[14] = Influenza A virus, MDCK, read-out: Antiviral EC50 against A/H1N1 virus, Virg09 strain, MTS
[15] = Influenza A virus, MDCK, read-out: Antiviral EC50 against A/H1N1 virus, Virg09 strain, Microscopy
[16] = read-out: Antiviral EC50 against A/H1N1 virus, PR8 strain, MTS
[17] = read-out: Antiviral EC50 against A/H1N1 virus, PR8 strain, Microscopy

Sequence of H1 HA (C3W5S1 18-344 limits assumed): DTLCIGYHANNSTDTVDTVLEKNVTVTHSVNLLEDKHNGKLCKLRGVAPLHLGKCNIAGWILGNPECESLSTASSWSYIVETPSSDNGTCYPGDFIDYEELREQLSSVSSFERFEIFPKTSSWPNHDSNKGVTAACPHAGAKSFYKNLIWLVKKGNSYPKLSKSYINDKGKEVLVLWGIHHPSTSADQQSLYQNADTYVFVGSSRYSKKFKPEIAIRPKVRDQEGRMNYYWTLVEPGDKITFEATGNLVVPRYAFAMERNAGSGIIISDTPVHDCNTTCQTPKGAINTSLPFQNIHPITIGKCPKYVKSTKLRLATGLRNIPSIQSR
Sequence of H1 HA (C3W5S1 345-566 limits assumed): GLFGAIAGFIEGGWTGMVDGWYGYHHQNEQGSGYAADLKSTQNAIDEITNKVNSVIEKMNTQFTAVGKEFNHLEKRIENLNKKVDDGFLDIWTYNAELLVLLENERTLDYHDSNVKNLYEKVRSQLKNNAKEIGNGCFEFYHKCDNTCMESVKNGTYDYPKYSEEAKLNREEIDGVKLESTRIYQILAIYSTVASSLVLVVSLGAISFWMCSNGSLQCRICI

For `Cc1cc(CNC(=O)c2cc(Cl)cc(C(F)(F)F)c2)c(C)s1` [Compound 23, 3-Chloro-N-[(2,5-dimethylthiophen-3-yl)methyl]-5-(trifluoromethyl)benzamide], the EC50 ([1]; MDCK, 72 h) was 800 nM, the EC50 [1] was 810 nM and the CC50 [2] was > 100000 nM. The “Cytotoxicity MCC, Microscopy” value [3] was >100 µM, the EC50 [4] was 950 nM and the EC50 [5] was ~800 nM. For the same compound, the EC50 [6] was 300 nM, the “Inhibition of H5 HA cell-cell fusion at 6.3 μM” value [7] was “partial” and the “Inhibition of H5 HA cell-cell fusion at 25 μM” value [7] was “almost complete”. For the same compound, the “Inhibition of H5 HA cell-cell fusion at 100 μM” value [7] was “complete inhibition”, the “Binding of H1 HA to stem antibody C179 after acidic incubation (pH 5.2) in presence of compound” value (shortened to “Binding of H1 HA to stem antibody C179”) [8] was “remained significantly higher” and the “Effect of compound binding to HA (exposed to pH 7) on subsequent binding of antibody C179” value ([8]; pH 7) was “no effect”. It also gave an EC50 [9, 14] of 300 nM, an EC50 [9, 15] of 710 ± 450 nM and an EC50 ([9]; Influenza A virus, MDCK, read-out: Antiviral EC50 for Virg09 virus) of 500 nM. It also gave an EC50 ([9]; read-out: Antiviral EC50 against A/H1N1 virus, Virg09 strain, MTS) of 310 ± 120 nM, an EC50 [10, 16] of 920 ± 190 nM and an EC50 [10, 17] of 1100 ± 200 nM. For the same compound, the EC50 ([10]; read-out: Antiviral EC50 for PR8 virus) was 1000 nM and the EC50 [11] was 840 nM.

In the case of `Cc1cc(CNS(=O)(=O)c2ccc(C#N)cc2)c(C)s1` [Compound 21], the EC50 [12] is given as 470 nM.

In the case of `CCOC(=O)c1c(CSc2ccccc2)n(C)c2cc(Br)c(O)c(CN(C)C)c12` [Arbidol, reference compound], the EC50 ([1]; MDCK, 72 h) is reported as 10000 nM, the “Fold lower potency than VF-57a in pseudovirus entry” value [6] is reported as ~20 fold and the EC50 [6] is reported as 15000 nM. The “Binding of H1 HA to stem antibody C179” value [8] was “only slightly protected”.

For `O=C(NCCc1cccs1)c1cc(F)cc(C(F)(F)F)c1` [Compound 20], the EC50 [13] is given as 220 nM.

In the case of `CC(C)c1ccccc1NCCN1CCCCC1` [RL-007, reference compound], the EC50 ([1]; MDCK, 72 h) is reported as 10000 nM, the CC50 [2] is reported as 33000 ± 5000 nM and the “Cytotoxicity MCC, Microscopy” value [3] is reported as >40 µM. For the same compound, the EC50 [4] was 4100 nM, the EC50 [5] was 600 to 1500 nM and the “Fold higher activity against A/H1N1 than A/H5N1 pseudovirus” value [6] was ~127 fold. The EC50 [6] was 79 nM, the “Inhibition of H5 HA cell-cell fusion at 6.3 μM” value [7] was “inactive” and the “Inhibition of H5 HA cell-cell fusion at 25 μM” value [7] was “partially effective”. For the same compound, the “Inhibition of H5 HA cell-cell fusion at 100 μM” value [7] was “complete inhibition”, the “Binding of H1 HA to stem antibody C179” value [8] was “remained significantly higher” and the EC50 [9, 14] was 610 ± 60 nM. For the same compound, the EC50 [9, 15] was 690 ± 90 nM, the EC50 [10, 16] was 1400 nM and the EC50 [10, 17] was 1500 ± 100 nM. For the same compound, the EC50 [11] was 530 nM.

With `O=C1c2c(O)c(=O)ccn2N([C@@H]2c3ccccc3SCc3c2ccc(F)c3F)[C@@H]2COCCN12` [BXA, baloxavir acid] the “Cytotoxicity MCC, Microscopy” value [3] was >0.1 µM, the EC50 [9, 14] was 3.2 ± 0.4 nM and the EC50 [9, 15] was 3.5 nM. The EC50 [10, 16] was 6.1 ± 1.7 nM, the EC50 [10, 17] was 6.1 ± 2 nM and the EC50 [11] was 1.1 nM.
